Assay results taken from PMC5608804, “Stepwise Evolution Improves Identification of Diverse Peptides Binding to a Protein Target” (Scientific Reports, 2017).

The substances below were run against T1, streptavidin (Streptomyces avidinii, UniProt P22629) (assay: Cy5-streptavidin binding on HotSpot discovery array, 5-mer L-peptide library). Conditions: 5-mer L-peptide library array, Cy5-streptavidin; from average of three arrays.
T1 construct: purchased GE Healthcare (Little Chalfont, UK)
Outline: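 Array of 2,476,099 5-mer peptides (19 amino acids, no cysteine) with Gly-Ser linkers, probed overnight at 4 °C with 0.5 µg/ml Cy5-streptavidin in Tris pH 7.4 buffer containing casein or BSA plus Tween-20. Cy5 fluorescence read at 635 nm; peptides selected by signal-to-background >4 across three arrays.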

T1 sequence (P22629 25-183): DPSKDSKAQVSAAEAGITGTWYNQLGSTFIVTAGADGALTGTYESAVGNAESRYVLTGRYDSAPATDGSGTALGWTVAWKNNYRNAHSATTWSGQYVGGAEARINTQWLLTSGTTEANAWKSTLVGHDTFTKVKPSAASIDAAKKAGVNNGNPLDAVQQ

Substance	S/B (signal to background ratio)
THPQQ	42.4
DYHPM	28.4
ELHPQ	56.4
QWHPQ	173.7
NNHPQ	137.3
RAHPQ	147.2
HWHPQ	166.7
RFHPQ	161.9
HPQAF	40.6
LVHPM	31.0
LGQYH [L-amino acid 5-mer array peptide]	31.1
LGQFH [L-amino acid 5-mer array peptide]	21.5
YPHPQ	190.5
VFHPM	53.0
GRHPQ	136.4
SHPQM	37.7
HPMFG	21.9
AHPQQ	34.0
HHHPQ	143.8
RHPQG	124.2
HPQRW	30.7
QHPQH	52.4
RVHPQ	126.3
NKHPM	20.7
SHPQQ	41.4

Substance	S/B (signal to background ratio)
NHPQQ	42.3
HPQQN	23.0
SHPQN	135.7
WHHPM	129.3
AMHPQ	124.0
QMHPQ	124.9
THPMG	43.8
HPQNK	28.4
LHPMS	22.2
GWHPQ	190.5
WWHPM	52.3
VEHPQ	55.4
STHPM	48.2
EMHPQ	44.9
FHPQG	146.3
NHPQI	21.1
DDHPQ	31.9
HQHPQ	145.4
IYHPQ	169.4
QHPQN	143.0
FHPQW	22.2
IPHPQ	167.5
FQHPQ	161.2
HYHPQ	184.3
WHPMF	27.4

Substance	S/B (signal to background ratio)
AWHPQ	172.2
TFHPQ	156.9
YMHPQ	181.7
YRHPQ	185.8
HPQVR	28.4
MLHPQ	136.4
WGHPQ	216.3
TPHPM	44.1
PLHPM	39.0
AGHPQ	137.1
LHPQA	128.0
QGHPM	56.0
FVHPQ	150.1
ALHPM	39.7
PHPQT	24.1
GHPQM	40.8
QQHPM	43.3
HPQHF	18.9
RPHPQ	133.3
TGHPM	53.4
STHPQ	139.4
RQHPM	55.1
LAEYH [L-amino acid 5-mer array peptide]	45.0

Same assay, conditions: 5-mer L-peptide library array, Cy5-streptavidin; from the average of three arrays

Substance	S/B (signal to background ratio)
HPQNS	112.6
HPQNF	94.0
THPMA	67.4
EHPQG	64.3
VQHPQ	114.0
NHPQV	81.6
EHPQN	71.2
DPHPQ	88.5
HPQGS	105.2
NWHPM	84.8
IFHPM	60.0
KFHPQ	81.9
KSHPQ	80.0
WTHPM	114.6
VWHPM	71.2
QTHPQ	90.7
DLHPQ	60.4
GWHPM	97.0
HPQNA	108.8
KTHPQ	86.3
EYHPQ	96.9
PHPQS	95.0
ADHPQ	69.7
TKHPQ	61.5
VRHPM	64.0
EFHPQ	100.0
HHPQF	110.3
PVHPQ	99.3
IHPQG	85.9
DSHPQ	74.0

Same assay, conditions: 5-mer L-peptide library, from the average of three arrays

Substance	S/B (signal to background ratio)
KHPMM	4.9
HHPGQ	4.3
HPMRF	4.6
HPMQH	4.5
MPQHF	4.4
HPMST	4.2
DWDSW [L-amino acid 5-mer array peptide]	4.9
SHPQL	4.4
KHPMH	5.1
NHPQL	4.1
HGFPF	4.7
FMFMI [L-amino acid 5-mer array peptide]	4.3
HPQYL	4.7

Same assay, conditions: average of three arrays, L-peptide 5-mer library

Substance	S/B (signal to background ratio)
LGQYH [L-amino acid 5-mer array peptide]	31.1
LGQFH [L-amino acid 5-mer array peptide]	21.5
MALHF [L-amino acid 5-mer array peptide]	8.0
DWDSW [L-amino acid 5-mer array peptide]	4.9
PSWAH [L-amino acid 5-mer array peptide]	7.3
LGSFH [L-amino acid 5-mer array peptide]	8.7
LAFYH [L-amino acid 5-mer array peptide]	7.8
HGFPF	4.7
LGGYH [L-amino acid 5-mer array peptide]	6.1
FMFMI [L-amino acid 5-mer array peptide]	4.3
LAEYH [L-amino acid 5-mer array peptide]	45.0

Same assay, conditions: signal to background ratio; 5-mer L-peptide library array, Cy5-streptavidin

Substance	S/B
HPMFR	5.2
DKHPM	18.2
HPAFM	5.7
EHPQQ	16.2
FHPQL	7.4
KHPQW	9.2
AHPQI	15.7
MALHF [L-amino acid 5-mer array peptide]	8.0
KHPMY	6.0
HPQIN	12.2
HPMHG	13.1
QHPMR	9.5
HPQRP	9.4
PSWAH [L-amino acid 5-mer array peptide]	7.3
LGSFH [L-amino acid 5-mer array peptide]	8.7
QHPQK	15.8
HPMVS	8.8
LAFYH [L-amino acid 5-mer array peptide]	7.8
HPMFA	17.2
IHPQW	12.0
HPQRQ	9.1
HPMNR	5.6
LGGYH [L-amino acid 5-mer array peptide]	6.1
RHPMI	8.0
HPMNE	5.7
QHPQI	14.9
KHPMS	8.8
GHPQW	18.1
